Legend:
ARPE-19 cells [1] = experiment: Fatty acids against 7KCh-mediated cell death (CCK8); type: cell-based; conditions: for CONC. (μM): lowest concentration required to maintain full cell viability against 7KCh: 12 μM 7KCh for 24 hr, tested 0.1, 0.5, 1, 5 and 10 μM
Method: FIGS. 12A-12C depict ARPE-19 cell viability in response to 12 μM 7KCh with or without 0.1-5 μM (A) sterculic acid and (B) stearic acid after 24 hr treatments. Error bars indicate the standard deviations. n=3-5. Two-tailed Student's t-test. (C) Representative images of changes in cell morphology in response to 12 μM 7KCh with or without 1 μM sterculic acid and stearic acid after 24 hr treatments.
(§1) ARPE-19 cells were seeded in 24-well plates with 1×10^5 cells per well and allowed to recover for 16-24 hr. Once confluency reached approximately 90%, the effect of the fatty acids against 7KCh-mediated cell death was examined 24 hr after incubation in serum-free medium with 12 μM 7KCh. Fatty acids were tested at 0.1, 0.5, 1, 5 and 10 μM concentrations. The effects of the fatty acids against 7KCh-mediated inflammation and ER stress were examined by incubating cells in 1 μM fatty acids with either 8 μM 7KCh (24 hr for quantitative real-time PCR (qRT-PCR), 24 and 48 hr for immunoblot), or 6 μM 7KCh for 48 hr (for ELISA). Three individual experiments were performed for each treatment with quadruplicate measurements performed for each experiment in 24-well plates.
The cell viability was determined by the dehydrogenase activity of the ARPE-19 cells using Cell Counting Kit-8 (CCK8, Dojindo, Gaithersburg, Md.) according to manufacturer's protocol.
The lowest effective concentrations of fatty acids that offset the 7KCh-mediated cell death were determined. […] Table 3 lists the lowest concentrations of these fatty acids required to maintain full cell viability against 12 μM 7KCh treatment. All unsaturated fatty acids protected against 7KCh-induced cell death. […] DHA, α-linolenic, and linoleic acid prevented 7KCh-mediated cell death at 5 μM but the rest of unsaturated fatty acids and dihydrosterculic acid required 10 μM to be protective.

ARPE-19 cells [2] = experiment: qRT-PCR of inflammatory cytokines and ER stress markers, 7KCh-mediated inflammation; type: cell-based; conditions: for effect on 7KCh-mediated mRNA induction (inflammatory response): 1 μM fatty acid + 8 μM 7KCh, FIG. 13; for effect on 7KCh-mediated mRNA induction (inflammatory response) / VEGF mRNA expression / IL-6 mRNA expression / GRP78 mRNA expression / CHOP mRNA expression: 24 hr; for VEGF mRNA expression: FIG. 13A; for IL-6 mRNA expression: FIG. 13B; for GRP78 mRNA expression: FIG. 13C; for CHOP mRNA expression: FIG. 13D
Method: FIGS. 13A-13D depict mRNA expressions of (A) VEGF, (B) IL-6, (C) GRP78, and (D) CHOP in response to 8 μM 7KCh with or without 1 μM long-chain fatty acids. Error bars indicate the standard deviations. *p<0.05 comparing to 7KCh, n=3. Two-tailed Student's t-test.
FIGS. 14A-14D depict mRNA expressions of (A) VEGF, (B) IL-1b, (C) IL-6, and (D) IL-8 in response to 8 μM 7KCh, 1 μM sterculic acid, 1 μM stearic acid, or the combinations of 7KCh with either sterculic acid or stearic acid. Error bars indicate the standard deviations. *p<0.05 comparing to 7KCh, n=4. Two-tailed Student's t-test.
FIGS. 15A-15D depict mRNA expressions of (A) TNF-α, (B) TGF-β1, (C) GRP78, and (D) CHOP in response to 8 μM 7KCh, 1 μM sterculic acid, 1 μM stearic acid, or the combinations of 7KCh with either sterculic acid or stearic acid. Error bars indicate the standard deviations. *p<0.05 comparing to 7KCh, n=3-4. Two-tailed Student's t-test.
as §1
(§2) The RNA was extracted using RNeasy Mini Kit (Qiagen, Valencia, Calif.). The reverse transcription was performed with reagents and kits from Invitrogen. Quantification of mRNA expression was performed using the Taqman gene expression assays and the following primers (VEGFa, Hs00173626_m1; IL-1β, Hs01555413_m1; IL-6, Hs00174131_m1; IL-8, Hs00174103_m1; IκBα, Hs00153283_m1; GRP78, Hs99999174_m1; CHOP, Hs01090850_m1; NOX2, Hs00166163_m1; NOX4, Hs01558199_m1; SCD, Hs00748952 s1; TNF-α, Hs00174128_m1; TGF-β1, Hs00998133_m1; GAPD, 4352934e). GAPD expression was used as an endogenous standard. All qRT-PCR experiments were measured in triplicates in an ABI 7500 Real-Time PCR Instrument (Applied Biosystems, Foster City, Calif.). The results of each treatment were normalized and presented in percentage relative to the vehicle-only control.

ARPE-19 cells [3] = experiment: Immunoblots of CHOP and GRP78; type: cell-based; conditions: 1 μM + 8 μM 7KCh, 24 hr
Method: (§3) FIGS. 16A-16E depict the secreted protein levels of (A) VEGF, (B) IL-6, and (C) IL-8 were measure by ELISA 48 hr after treatment with 6 μM 7KCh, 1 μM sterculic acid, 1 μM stearic acid, or the combinations of 7KCh with either sterculic acid or stearic acid. Error bars indicate the standard deviations. *p<0.05 comparing to 7KCh, n=3. Two-tailed Student's t-test. The expressions of GRP78 and CHOP were shown by immunoblots (D) 24 hr or (E) 48 hr after treatment with 8 μM 7KCh, 1 μM sterculic acid, 1 μM stearic acid, or the combinations of 7KCh with either sterculic acid or stearic acid.
as §1
Lysis of ARPE-19 cells was performed using MPER buffer solution (Thermo Fisher Scientific) containing Complete Protease Inhibitor Cocktail (Roche Diagnostics). A total of 10 μg protein samples of the cell lysate were separated by SDS-PAGE on 10% Bis-Tris gels (Invitrogen). The gels were blotted on to nitrocellulose membranes (Invitrogen). The proteins were probed with primary antibodies for CHOP (1:1000 dilution), GRP78 (1:1000), or GAPDH (1:2000) at 4° C. overnight. The membranes were then further incubated with anti-rabbit IgG, HRP-linked antibodies (1:2000 dilution) at room temperature for 1 hr. […]

ARPE-19 cells [4] = experiment: ELISA of secreted VEGF, IL-6, IL-8 in conditioned medium; type: cell-based; conditions: 1 μM + 6 μM 7KCh, 48 hr
Method: as §3, §1
The levels of secreted VEGF, IL-6, IL-8, and TNF-α in conditioned medium of ARPE-19 cell cultures were measured 48 hr after treatments of 6 μM 7KCh and 1 μM fatty acids using the Quantkine ELISA kits from R&D systems (Minneapolis, Minn.). The protein levels were measured in triplicates. The ELISA results were quantified using an Envision multilable plate reader (PerkinElmer, Covina, Calif.) and presented in percentage relative to the vehicle-only control.

ARPE-19 cells [5] = experiment: qRT-PCR of cytokines in TNF-α treated cells; type: cell-based; conditions: 24 hr
Method: FIGS. 17A-17D depict the mRNA expressions of (A) IL-1β, (B) IL-8, (C) IκBα, and (D) GRP78 in response to 2 ng/ml TNF-α, 1 μM sterculic acid, 1 μM stearic acid, or the combinations of TNF-α with either sterculic acid or stearic acid. n=3. Error bars indicate the standard deviations.
Tumor necrosis factor-alpha (TNF-α, Roche Diagnostics, Indianapolis, Ind.) was diluted in PBS to make 10 μg/ml stock solution and stored at −20° C. In order to test the anti-inflammation effect of fatty acids against TNF-α, ARPE-19 cells were treated with 2 ng/ml of TNF-α for 24 hr in serum-free medium with or without 1 μM fatty acids. The mRNA expressions of cytokines were then examined using qRT-PCR. Each treatment was performed three times with quadruplicate measurements in each experiment, in 24-well plates.
as §2

ARPE19 cells [6] = experiment: CellTiter-Glo luminescent cell viability assay, 15 μM 7KCh-induced cytotoxicity; type: cell-based, human; conditions: 1 μM fatty acid + 15 μM 7KCh, 24 hr, CellTiter-Glo
Method: Error bar: standard deviation, n=4.
CellTiter-Glo® Luminescent Cell Viability Assay is a homogeneous method of determining the number of viable cells in culture based on quantitation of the ATP (luminescent signal) present, an indicator of metabolically active cells.
The contents in a plate were mixed for 2 min on an orbital shaker to induce cell lysis.
5) The plate was allowed to incubate at room temperature for 10 min to stabilize luminescent signal.

ARPE19 cells [7] = experiment: Phase-contrast images of cells after co-treatment with 15 μM 7KCh; type: cell-based, human; conditions: 1 μM fatty acid + 15 μM 7KCh, 24 hr
Source text: FIG. 8 depicts phase-contrast images of ARPE19 cells at 24 hr after sterculic acid co-treatment with 7KCh.

ARPE19 cells [8] = experiment: Cell Counting Kit-8 viability assay, 15 μM 7KCh-induced cytotoxicity; conditions: 1 μM fatty acid + 15 μM 7KCh, 24 hr, CCK-8
Method: 4×10^4 cells were seeded onto wells of a 96 well plate. […] Cell viability was determined as celluar dehydrogenase activity and expressed as the percentage of compound treated cells relative to that of untreated controls. error bar: standard deviation, n=4.
The kit allows sensitive colorimetric assays for the determination of the number of viable cells in cell proliferation and cytotoxicity assays. The amount of the formazan dye generated by the activity of dehydrogenases in cells is directly proportional to the number of living cells.
1) Cells were cultivated in a 96 well cell plate (Costar#3599, Corning Incorp, Corning, N.Y.).
2) The cell suspension (40,000 cells/100 μL) were added to 100 μL culture media per well and stood for 15 min at room temperature and cultured at 37° C. in a humidified 5% CO2 atmosphere.
3) Approximately 19 hr after seeding, when the cells were fully confluent, the cells were treated with either DMSO or 1 μM fatty acid in 200 μL of serum free media and subsequently added with 15 μM 7KCh in HPBCD. Then, the plate was swirled for mixing. The cells were also treated with DMSO and HPBCD, which served as vehicle control. The final DMSO and HPBCD concentrations in the media were in the range of 0.1% and 0.0675%, respectively.
Cell viability was expressed as the percentage of compound treated cells relative to that of untreated controls. Prior to measure cell viability, the cells were imaged live by Nikon TE 2000-U inverted fluorescent microscope.

ARPE19 cells [9] = experiment: 7-ketocholesterol-mediated cytotoxicity, 24-well CCK-8 viability and images; conditions: 24 hr
[10] = 8 μM 7KCh alone or with 1 μM fatty acid

Molecule: CCCCC/C=C\C/C=C\C/C=C\C/C=C\CCCC(=O)O [arachidonic acid, Arachidonic acid]
- CONC. (μM): lowest concentration required to maintain full cell viability against 7KCh (ARPE-19 cells [1]): 10 µM
- effect on 7KCh-mediated mRNA induction (inflammatory response) (ARPE-19 cells [2]): either ineffective or enhanced

Molecule: CCCCCCCCCCCCCCCCCC(=O)O [stearic acid]
- morphological effects on the cells (images) (ARPE-19 cells [1]; 1 μM + 12 μM 7KCh, 24 hr, FIG. 12C): no effect
- protective effect against 7KCh-mediated cell death (ARPE-19 cells [1]; 12 μM 7KCh, 24 hr, 0.1-10 μM fatty acid): did not demonstrate any protective effect
- antagonistic effect to 7KCh-mediated mRNA induction (ARPE-19 cells [2]; 1 μM + 8 μM 7KCh, FIGS. 14, 15): did not show any antagonistic effect
- effect on 7KCh-mediated mRNA induction (inflammatory response) (ARPE-19 cells [2]): either ineffective or enhanced
- effect of fatty acid alone on the mRNA expression of the cytokines (ARPE-19 cells [2]; 1 μM fatty acid alone, no 7KCh, FIGS. 14, 15): no effect
- induction of VEGF mRNA (ARPE-19 cells [2]; 8 μM 7KCh alone or with 1 μM fatty acid, FIG. 14A): 8.8 fold
- induction of IL-6 mRNA (ARPE-19 cells [2]; 8 μM 7KCh alone or with 1 μM fatty acid, FIG. 14C): 29 fold
- effect on 7KCh-induced CHOP and GRP78 protein expression (ARPE-19 cells [3]): no effect
- effect on secreted VEGF, IL-6, IL-8 protein levels (ARPE-19 cells [4]): no measurable effect
- antagonist effect to the cytokine inductions by TNF-α (ARPE-19 cells [5]; 1 μM fatty acid + 2 ng/ml TNF-α): seemed to enhance

Molecule: CC/C=C\C/C=C\C/C=C\CCCCCCCC(=O)O [α-linolenic acid]
- CONC. (μM): lowest concentration required to maintain full cell viability against 7KCh (ARPE-19 cells [1]): 5 µM
- VEGF mRNA expression (ARPE-19 cells [2]; [10]): essentially ineffective
- IL-6 mRNA expression (ARPE-19 cells [2]; [10]): somewhat effective
- GRP78 mRNA expression (ARPE-19 cells [2]; [10]): somewhat effective
- CHOP mRNA expression (ARPE-19 cells [2]; [10]): somewhat effective

Molecule: CC/C=C\C/C=C\C/C=C\C/C=C\C/C=C\C/C=C\CCC(=O)O [docosahexaenoic acid]
- CONC. (μM): lowest concentration required to maintain full cell viability against 7KCh (ARPE-19 cells [1]): 5 µM

Molecule: CCCCC/C=C\C/C=C\CCCCCCCC(=O)O [linoleic acid]
- CONC. (μM): lowest concentration required to maintain full cell viability against 7KCh (ARPE-19 cells [1]): 5 µM
- effect on 7KCh-mediated mRNA induction (inflammatory response) (ARPE-19 cells [2]): either ineffective or enhanced

Molecule: TNF-α
- induction of GRP78 mRNA expression (ARPE-19 cells [5]; 2 ng/ml TNF-α alone or with 1 μM fatty acid, FIG. 17D): 2.5 fold
- induction of IL-1β mRNA expression (ARPE-19 cells [5]; 2 ng/ml TNF-α): 9 fold
- induction of IL-8 mRNA expression (ARPE-19 cells [5]; 2 ng/ml TNF-α): 8 fold
- induction of IκBα mRNA expression (ARPE-19 cells [5]; 2 ng/ml TNF-α): 3 fold

Molecule: CCCCCCCC[C@@H]1C[C@@H]1CCCCCCCC(=O)O [dihydrosterculic acid, Dihydrosterculic acid]
- CONC. (μM): lowest concentration required to maintain full cell viability against 7KCh (ARPE-19 cells [1]): 10 µM
- VEGF mRNA expression (ARPE-19 cells [2]; [10]): essentially ineffective
- IL-6 mRNA expression (ARPE-19 cells [2]; [10]): somewhat effective
- GRP78 mRNA expression (ARPE-19 cells [2]; [10]): somewhat effective
- CHOP mRNA expression (ARPE-19 cells [2]; [10]): somewhat effective
- increase of cell viability compared to 7KCh alone treatment (ARPE19 cells [6]): 20%
- cell morphological changes compared to 7KCh alone (ARPE19 cells [7]): more cells compared to 7KCh alone
- increase of cell viability compared to 7KCh alone treatment (ARPE19 cells [8]): 20%
- protection of cell confluency and morphology (images) (ARPE19 cells [9]; 0.5 μM co-treatment with 12 μM 7KCh): no effect
- protection of cell confluency and morphology (images) (ARPE19 cells [9]; 1 μM co-treatment with 12 μM 7KCh): slight effect
- protection of cell confluency and morphology (images) (ARPE19 cells [9]; 1 μM co-treatment with 12 μM 7KCh, listed as Dihydrosterculic acid): do not have such protection effect

Source: patent US8993626B2, “Methods of treatment using sterculic acid” (The United States of America, as represented by the …, priority 2010, dated 2015)
